# Key:
# Rattus norvegicus [1] = test: Serum creatinine concentration measured after intraperitoneal administration of 10 mg/kg of compound to rats (vehicle0.63+/-0.29); assay type: functional
# Rattus norvegicus [2] = test: Oral diuretic activity was measured after oral administration of 25 mg/kg to rats(control volume is 0.80+/-0.13); assay type: functional, Urine
# Rattus norvegicus [3] = test: Percent inhibition of serum creatinine by the compound given as ratio of Cr value in treated to vehicle treated ones after intraperitoneal administration of 10 mg/kg of compound to rats (vehicle0.63+/-0.29); assay type: functional; conditions: ip
# Rattus norvegicus [4] = test: Ratio of urinary excretion value (urinary volume) in treated rats to that in control rats, at a peroral dose of 25 mg/Kg; assay type: functional, Urine
# Rattus norvegicus [5] = test: Ratio of sodium ion/potassium ion concentration in treated rats to that in control rats, at a peroral dose of 25 mg/Kg; assay type: functional
# Rattus norvegicus [6] = test: Ratio of urinary excretion value (Na+ concentration) in treated rats to that in control rats, at a peroral dose of 25 mg/Kg; assay type: functional, Urine
# Rattus norvegicus [7] = test: Effect on urinary excretion potassium and sodium after oral administration of 25 mg/kg to rats(potassium and sodium excretion in control rat is 0.160+/-0.017); assay type: functional, Urine
# Rattus norvegicus [8] = test: Urea nitrogen concentration measured after intraperitoneal administration of 10 mg/kg of compound to rats(vehicle 137.9+/-8.5); assay type: functional
# Rattus norvegicus [9] = test: Percent inhibition of Urea nitrogen by the compound given as ratio of UN value in treated to vehicle treated ones fter intraperitoneal administration of 10 mg/kg of compound to rats(vehicle 137.9+/-8.5); assay type: functional; conditions: ip
# Adenosine receptor A1 = target: T1, Adenosine receptor A1 (Cavia porcellus, UniProt P47745)
# T1 sequence (P47745 whole entry): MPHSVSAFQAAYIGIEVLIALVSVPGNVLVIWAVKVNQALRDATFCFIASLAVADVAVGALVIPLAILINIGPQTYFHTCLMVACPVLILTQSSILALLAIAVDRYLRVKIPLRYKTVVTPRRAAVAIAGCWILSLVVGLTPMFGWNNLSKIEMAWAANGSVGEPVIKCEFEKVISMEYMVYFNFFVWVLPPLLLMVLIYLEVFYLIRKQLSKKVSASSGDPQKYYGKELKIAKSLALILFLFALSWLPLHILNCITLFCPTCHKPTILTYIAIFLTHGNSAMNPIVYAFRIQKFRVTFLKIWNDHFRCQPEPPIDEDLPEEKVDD
# Description: Binding affinity against adenosine A1 receptor in guinea pig forebrain membranes using N6-[3H]cyclohexyladenosine as radioligand
# Adenosine A2 receptor = Adenosine A2 receptor (Rattus norvegicus, UniProt P29276+P30543)
# Rattus norvegicus [10] = test: Serum creatinine concentration measured after intraperitoneal administration of 1 mg/kg of compound to rats(vehicle 2.75+/-0.43); assay type: functional
# Rattus norvegicus [11] = test: Effect on urinary excretion potassium and sodium after oral administration of 0.0025 mg/kg to rats(potassium and sodium excretion in control rat is 0.146+/-0.006); assay type: functional, Urine
# Rattus norvegicus [12] = test: Effect on urinary excretion potassium and sodium after oral administration of 0.005 mg/kg to rats(potassium and sodium excretion in control rat is 0.160+/-0.006); assay type: functional, Urine
# Rattus norvegicus [13] = test: Ratio of urinary excretion value (Na+ concentration) in treated rats to that in control rats, at a peroral dose of 0.0025 mg/Kg; assay type: functional, Urine
# Rattus norvegicus [14] = test: Ratio of urinary excretion value (Na+ concentration) in treated rats to that in control rats, at a peroral dose of 0.005 mg/Kg; assay type: functional, Urine
# Rattus norvegicus [15] = test: Effect on urinary excretion potassium and sodium after oral administration of 0.4 mg/kg to rats(potassium and sodium excretion in control rat is 0.261+/-0.008); assay type: functional, Urine
# Rattus norvegicus [16] = test: Effect on urinary excretion potassium and sodium after oral administration of 1.6 mg/kg to rats(potassium and sodium excretion in control rat is 0.173+/-0.016); assay type: functional, Urine
# Rattus norvegicus [17] = test: Percent inhibition of serum creatinine by the compound given as ratio of Cr value in treated to vehicle treated ones after intraperitoneal administration of 1 mg/kg of compound to rats(vehicle 2.75+/-0.43); assay type: functional; conditions: ip
# Rattus norvegicus [18] = test: Ratio of urinary excretion value (urinary volume) in treated rats to that in control rats, at a peroral dose of 0.1 mg/Kg; assay type: functional, Urine
# Rattus norvegicus [19] = test: Ratio of urinary excretion value (urinary volume) in treated rats to that in control rats, at a peroral dose of 0.4 mg/Kg; assay type: functional, Urine
# Rattus norvegicus [20] = test: Ratio of urinary excretion value (urinary volume) in treated rats to that in control rats, at a peroral dose of 1.6 mg/Kg; assay type: functional, Urine
# Rattus norvegicus [21] = test: Urea nitrogen concentration measured after intraperitoneal administration of 1 mg/kg of compound to rats(vehicle 123.2+/-14.2); assay type: functional
# Rattus norvegicus [22] = test: Effect on urinary excretion potassium and sodium after oral administration of 0.025 mg/kg to rats(potassium and sodium excretion in control rat is 0.183+/-0.012); assay type: functional, Urine
# Rattus norvegicus [23] = test: Effect on urinary excretion potassium and sodium after oral administration of 0.1 mg/kg to rats(potassium and sodium excretion in control rat is 0.143+/-0.013); assay type: functional, Urine
# Rattus norvegicus [24] = test: Ratio of sodium ion/potassium ion concentration in treated rats to that in control rats, at a peroral dose of 0.0025 mg/Kg; assay type: functional
# Rattus norvegicus [25] = test: Ratio of sodium ion/potassium ion concentration in treated rats to that in control rats, at a peroral dose of 0.005 mg/Kg; assay type: functional
# Rattus norvegicus [26] = test: Ratio of sodium ion/potassium ion concentration in treated rats to that in control rats, at a peroral dose of 0.025 mg/Kg; assay type: functional
# Rattus norvegicus [27] = test: Ratio of sodium ion/potassium ion concentration in treated rats to that in control rats, at a peroral dose of 0.1 mg/Kg; assay type: functional
# Rattus norvegicus [28] = test: Ratio of sodium ion/potassium ion concentration in treated rats to that in control rats, at a peroral dose of 0.4 mg/Kg; assay type: functional
# Rattus norvegicus [29] = test: Ratio of sodium ion/potassium ion concentration in treated rats to that in control rats, at a peroral dose of 1.6 mg/Kg; assay type: functional
# Rattus norvegicus [30] = test: Ratio of urinary excretion value (Na+ concentration) in treated rats to that in control rats, at a peroral dose of 0.1 mg/Kg; assay type: functional, Urine
# Rattus norvegicus [31] = test: Ratio of urinary excretion value (Na+ concentration) in treated rats to that in control rats, at a peroral dose of 0.4 mg/Kg; assay type: functional, Urine
# Rattus norvegicus [32] = test: Ratio of urinary excretion value (Na+ concentration) in treated rats to that in control rats, at a peroral dose of 1.6 mg/Kg; assay type: functional, Urine
# Rattus norvegicus [33] = test: Ratio of urinary excretion value (Na+ concentration) in treated rats to that in control rats, at a peroral dose of 6.25 mg/Kg; assay type: functional, Urine
# Rattus norvegicus [34] = test: Ratio of urinary excretion value (urinary volume) in treated rats to that in control rats, at a peroral dose of 0.0025 mg/Kg; assay type: functional, Urine
# Rattus norvegicus [35] = test: Ratio of urinary excretion value (urinary volume) in treated rats to that in control rats, at a peroral dose of 0.005 mg/Kg; assay type: functional, Urine
# Rattus norvegicus [36] = test: Ratio of urinary excretion value (urinary volume) in treated rats to that in control rats, at a peroral dose of 0.025 mg/Kg; assay type: functional, Urine
# Rattus norvegicus [37] = test: Effect on urinary excretion potassium and sodium after oral administration of 25 mg/kg to rats(potassium and sodium excretion in control rat is 0.138+/-0.008); assay type: functional, Urine
# Rattus norvegicus [38] = test: Oral diuretic activity was measured after oral administration of 0.0025 mg/kg to rats(control volume is 0.95+/-0.12); assay type: functional, Urine
# Rattus norvegicus [39] = test: Oral diuretic activity was measured after oral administration of 0.005 mg/kg to rats(control volume is 0.76+/-0.01); assay type: functional, Urine
# Rattus norvegicus [40] = test: Oral diuretic activity was measured after oral administration of 0.025 mg/kg to rats(control volume is 0.82+/-0.05); assay type: functional, Urine
# Rattus norvegicus [41] = test: Oral diuretic activity was measured after oral administration of 0.1 mg/kg to rats(control volume is 0.92+/-0.05); assay type: functional, Urine
# Rattus norvegicus [42] = species on record: Rattus norvegicus; assay type: functional, Urine; conditions: po, 1.6 mg/kg
# Rattus norvegicus [43] = test: Percent inhibition of Urea nitrogen by the compound given as ratio of UN value in treated to vehicle treated ones after intraperitoneal administration of 1 mg/kg of compound to rats(vehicle 123.2+/-14.2); assay type: functional; conditions: ip
# Rattus norvegicus [44] = test: Ratio of urinary excretion value (Na+ concentration) in treated rats to that in control rats, at a peroral dose of 0.025 mg/Kg; assay type: functional, Urine
# Rattus norvegicus [45] = test: Ratio of urinary excretion value (urinary volume) in treated rats to that in control rats, at a peroral dose of 6.25 mg/Kg; assay type: functional, Urine
# Rattus norvegicus [46] = test: Oral diuretic activity was measured after oral administration of 0.4 mg/kg to rats(control volume is 1.4+/-0.05); assay type: functional, Urine
# Rattus norvegicus [47] = test: Oral diuretic activity was measured after oral administration of 25 mg/kg to rats(control volume is 0.66+/-0.04); assay type: functional, Urine
structure (smiles),measurement,setting,value
CCCn1c(=O)c2nc(CC34CC5CC(CC(C5)C3)C4)[nH]c2n(CCC)c1=O,Cr,Rattus norvegicus [1],3.21 mg/dL
same,Urine volume,Rattus norvegicus [2],0.51 ml 6hr-1 100g-1
same,inhibition in vivo at 10 mg/kg,Rattus norvegicus [3],12%
same,T/C,Rattus norvegicus [4],0.64
same,Na+/K+,Rattus norvegicus [5],0.84
same,T/C,Rattus norvegicus [6],0.67
same,Na,Rattus norvegicus [7],0.108 m equiv 6hr-1 100g-1
same,UN,Rattus norvegicus [8],117.8 mg/dL
same,inhibition in vivo at 10 mg/kg,Rattus norvegicus [9],15%
same,Ki,Adenosine receptor A1,880 nM
same,Ki,Adenosine A2 receptor,> 100000 nM
CCCn1c(=O)c2nc(C34CC5CC(CC3C5)C4)[nH]c2n(CCC)c1=O [ROLOFYLLINE],Cr,Rattus norvegicus [10],2 mg/dL
same,Na,Rattus norvegicus [11],0.258 m equiv 6hr-1 100g-1
same,Na,Rattus norvegicus [12],0.256 m equiv 6hr-1 100g-1
same,T/C,Rattus norvegicus [13],1.76
same,T/C,Rattus norvegicus [14],1.6
same,Na,Rattus norvegicus [15],0.447 m equiv 6hr-1 100g-1
same,Na,Rattus norvegicus [16],0.399 m equiv 6hr-1 100g-1
same,inhibition in vivo at 1 mg/kg,Rattus norvegicus [17],47%
same,T/C,Rattus norvegicus [18],2.65
same,T/C,Rattus norvegicus [19],1.86
same,T/C,Rattus norvegicus [20],2.61
same,T/C,Rattus norvegicus [4],4.15
same,UN,Rattus norvegicus [21],66.4 mg/dL
same,Na,Rattus norvegicus [22],0.331 m equiv 6hr-1 100g-1
same,Na,Rattus norvegicus [23],0.334 m equiv 6hr-1 100g-1
same,Na+/K+,Rattus norvegicus [24],1.59
same,Na+/K+,Rattus norvegicus [25],1.11
same,Na+/K+,Rattus norvegicus [26],1.45
same,Na+/K+,Rattus norvegicus [27],1.9
same,Na+/K+,Rattus norvegicus [28],1.42
same,Na+/K+,Rattus norvegicus [29],1.93
same,Na+/K+,Rattus norvegicus [5],2.05
same,T/C,Rattus norvegicus [30],2.34
same,T/C,Rattus norvegicus [31],1.7
same,T/C,Rattus norvegicus [32],2.3
same,T/C,Rattus norvegicus [6],3.44
same,T/C,Rattus norvegicus [33],2.64
same,T/C,Rattus norvegicus [34],1.69
same,T/C,Rattus norvegicus [35],1.83
same,T/C,Rattus norvegicus [36],2.13
same,Na,Rattus norvegicus [37],0.457 m equiv 6hr-1 100g-1
same,Urine volume,Rattus norvegicus [38],1.61 ml 6hr-1 100g-1
same,Urine volume,Rattus norvegicus [39],1.39 ml 6hr-1 100g-1
same,Urine volume,Rattus norvegicus [40],1.75 ml 6hr-1 100g-1
same,Urine volume,Rattus norvegicus [41],2.44 ml 6hr-1 100g-1
same,Urine volume,Rattus norvegicus [42],2.77 ml 6hr-1 100g-1
same,inhibition in vivo at 1 mg/kg,Rattus norvegicus [43],46%
same,T/C,Rattus norvegicus [44],1.81
same,T/C,Rattus norvegicus [45],2.9
same,Urine volume,Rattus norvegicus [46],2.64 ml 6hr-1 100g-1
same,Urine volume,Rattus norvegicus [47],2.74 ml 6hr-1 100g-1
same,Ki,Adenosine A2 receptor,380 nM

# Reference: ChEMBL document CHEMBL1125524, “Adenosine A1 antagonists. 2. Structure-activity relationships on diuretic activities and protective effects against acute renal failure” (J Med Chem, 1992)
